Reference: ChEMBL document CHEMBL1147032, “Design, synthesis, and biological evaluation of substituted 2-alkylthio-1,5-diarylimidazoles as selective COX-2 inhibitors” (Bioorg Med Chem, 2007)

Legend:
[1] = molecular target: T1, Prostaglandin G/H synthase 2 (Mus musculus, UniProt Q05769); test: Inhibition of mouse COX2
T1 sequence (Q05769 whole entry): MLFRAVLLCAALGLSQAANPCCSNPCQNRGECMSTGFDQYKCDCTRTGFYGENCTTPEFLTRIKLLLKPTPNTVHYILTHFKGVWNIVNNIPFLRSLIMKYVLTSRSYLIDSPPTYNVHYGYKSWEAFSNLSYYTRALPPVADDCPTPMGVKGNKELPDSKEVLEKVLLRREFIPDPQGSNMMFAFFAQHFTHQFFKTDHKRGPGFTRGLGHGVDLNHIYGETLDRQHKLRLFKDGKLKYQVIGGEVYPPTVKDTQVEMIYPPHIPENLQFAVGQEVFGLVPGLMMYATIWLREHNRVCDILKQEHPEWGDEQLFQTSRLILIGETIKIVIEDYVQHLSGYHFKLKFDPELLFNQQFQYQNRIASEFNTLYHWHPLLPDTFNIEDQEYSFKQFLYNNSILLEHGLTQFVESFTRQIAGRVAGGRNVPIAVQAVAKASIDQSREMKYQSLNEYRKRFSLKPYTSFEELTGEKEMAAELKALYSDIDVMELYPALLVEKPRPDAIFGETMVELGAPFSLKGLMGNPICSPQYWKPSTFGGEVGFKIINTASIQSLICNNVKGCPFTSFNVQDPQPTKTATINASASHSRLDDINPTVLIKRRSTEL

[2] = molecular target: T2, Prostaglandin G/H synthase 1 (Ovis aries, UniProt P05979); test: Inhibition of ovine COX1
T2 sequence (P05979 whole entry): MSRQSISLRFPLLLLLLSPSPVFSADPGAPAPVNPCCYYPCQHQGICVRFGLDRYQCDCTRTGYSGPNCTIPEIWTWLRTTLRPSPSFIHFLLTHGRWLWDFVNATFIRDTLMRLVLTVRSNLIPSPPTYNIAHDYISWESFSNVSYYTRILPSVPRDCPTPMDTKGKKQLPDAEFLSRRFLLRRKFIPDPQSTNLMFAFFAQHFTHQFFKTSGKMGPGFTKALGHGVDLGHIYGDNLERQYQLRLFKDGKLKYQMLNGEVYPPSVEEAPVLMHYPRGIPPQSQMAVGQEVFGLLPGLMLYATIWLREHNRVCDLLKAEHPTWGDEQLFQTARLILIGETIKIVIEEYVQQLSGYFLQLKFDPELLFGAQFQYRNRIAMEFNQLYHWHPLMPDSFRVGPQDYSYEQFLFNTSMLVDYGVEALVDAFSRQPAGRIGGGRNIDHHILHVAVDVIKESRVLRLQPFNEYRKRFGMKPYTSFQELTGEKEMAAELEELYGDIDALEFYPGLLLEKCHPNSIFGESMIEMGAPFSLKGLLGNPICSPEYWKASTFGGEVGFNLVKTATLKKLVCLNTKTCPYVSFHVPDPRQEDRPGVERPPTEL

Rattus norvegicus [3] = test: Antiinflammatory activity against carrageenan-induced paw edema in Sprague-Dawley rat at 50 mg/kg, po after 3 hrs; assay type: functional
Rattus norvegicus [4] = test: Antiinflammatory activity against carrageenan-induced paw edema in Sprague-Dawley rat at 50 mg/kg, po after 5 hrs; assay type: functional
[5] = Inhibition of ovine COX1 at 0.5 uM
[6] = Inhibition of ovine COX1 at 25 uM

SMILES	IC50 [1] [nM]	IC50 [2] [nM]	inhibition in vivo at 50 mg/kg (Rattus norvegicus [3]) [%]	inhibition in vivo at 50 mg/kg (Rattus norvegicus [4]) [%]	inhibition [5] [%]	inhibition [6] [%]
CCSc1ncc(-c2ccc(S(C)(=O)=O)cc2)n1-c1ccc(OC)cc1	> 25000	510				
CCSc1ncc(-c2ccc(S(C)(=O)=O)cc2)n1-c1ccc(Cl)cc1	> 25000	820	53.8	52.7		
CSc1ncc(-c2ccc(S(C)(=O)=O)cc2)n1-c1ccccc1	> 25000	580	74.1	61.6		
Cc1ccc(-c2cc(C(F)(F)F)nn2-c2ccc(S(N)(=O)=O)cc2)cc1 [CELECOXIB]			70.5	50		
CSc1ncc(-c2ccc(S(C)(=O)=O)cc2)n1-c1ccc(Br)cc1	> 25000	430	90.7	88		
CCSc1ncc(-c2ccc(S(C)(=O)=O)cc2)n1-c1ccc(Br)cc1	> 25000	> 4000	66	59		
CSc1ncc(-c2ccc(S(C)(=O)=O)cc2)n1-c1ccc(Cl)cc1	> 25000	470	59.5	42.7		
CSc1ncc(-c2ccc(S(C)(=O)=O)cc2)n1-c1ccc(F)cc1	> 25000	520	40	18.7		
CCSc1ncc(-c2ccc(S(C)(=O)=O)cc2)n1-c1ccccc1	> 25000	580	89.7	51.1		
CCSc1ncc(-c2ccc(S(C)(=O)=O)cc2)n1-c1ccc(F)cc1	> 25000	500	65	43	21	29
COc1ccc(-n2c(-c3ccc(S(C)(=O)=O)cc3)cnc2SC)cc1	> 25000	2610	41.3	34.3		
